Consider 24 compounds from ChEMBL document CHEMBL6096640, “Discovery of novel thiosemicarbazone-acridine targeting butyrylcholinesterase with antioxidant, metal complexing and neuroprotector abilities as potential treatment of Alzheimer's disease: In vitro, in vivo, and in silico studies” (Eur J Med Chem, 2025).

In series [1] the target is Cholinesterase (Equus caballus) (UniProt P81908). Nature of the series: Inhibition of equine serum BChE using butyrylthiocholine iodide as substrate at 10 uM preincubated for 10 mins followed by substrate addition by Ellman's method relative to control.
The target in series [2] is T1, Acetylcholinesterase (Electrophorus electricus, UniProt O42275).
Description: Inhibition of electric eel AChE using acetylthiocholine iodide as substrate preincubated for 10 mins followed by substrate addition by Ellman's method
Series [3] has as its target T2, Cholinesterase (Equus caballus, UniProt P81908).
Description: Inhibition of equine serum BChE using butyrylthiocholine iodide as substrate preincubated for 10 mins followed by substrate addition by Ellman's method
The nature of series [4]: Neurotoxicity against human SH-SY5Y cells assessed as reduction in cell viability at <= 50 uM. The series is classed as toxicity, cell-based.
Series [5] is described as follows: Antioxidant activity of the compound assessed as DPPH radical scavenging activity at 100 uM incubated under light for 30 mins by spectrophotometric analysis relative to control. The format is functional.
The target of series [6] is T1, Acetylcholinesterase. Nature of the series: Competitive inhibition of electric eel AChE using acetylthiocholine iodide as substrate at 11 uM preincubated for 10 mins followed by substrate addition by Lineweaver-Burk plot analysis.
The target in series [7] is T1, Acetylcholinesterase. Put plainly: Non-competitive inhibition of electric eel AChE using acetylthiocholine iodide as substrate preincubated for 10 mins followed by substrate addition by Lineweaver-Burk plot analysis.
For series [8], the target named is Acetylcholinesterase (Electrophorus electricus) (UniProt O42275). Nature of the series: Mixed-type inhibition of electric eel AchE using acetylthiocholine iodide as substrate assessed as decrease in Vmax with increase in Km preincubated for 10 mins followed by substrate addition by Lineweaver-Burk plot analysis.
Series [9] has as its target Cholinesterase (Equus caballus) (UniProt P81908). Nature of the series: Mixed-type inhibition of equine serum BChE using butyrylthiocholine iodide as substrate assessed as decrease in Vmax with increase in Km preincubated for 10 mins followed by substrate addition by Lineweaver-Burk plot analysis.
Series [10] addresses T2, Cholinesterase. Nature of the series: Competitive inhibition of equine serum BChE using butyrylthiocholine iodide as substrate at 3 uM preincubated for 10 mins followed by substrate addition by Lineweaver-Burk plot analysis.
Series [11] addresses T2, Cholinesterase. Put plainly: Non-competitive inhibition of equine serum BChE using butyrylthiocholine iodide as substrate preincubated for 10 mins followed by substrate addition by Lineweaver-Burk plot analysis.
The nature of series [12]: Antioxidant activity of the compound assessed as DPPH radical scavenging activity at 10 uM incubated under light for 30 mins by spectrophotometric analysis relative to control. The format is functional.
Series [13] is described as follows: Neurotoxicity against human SH-SY5Y cells assessed as cell viability at 12.5 to 50 uM relative to control. The series is classed as toxicity, cell-based. The conditions noted are these: dose 12.5-50 µM, read-out: Activity.
Series [14] deals with T2, Cholinesterase. Put plainly: Competitive inhibition of equine serum BChE using butyrylthiocholine iodide as substrate preincubated for 10 mins followed by substrate addition by Lineweaver-Burk plot analysis.
Series [15] deals with Acetylcholinesterase (Electrophorus electricus) (UniProt O42275). Put plainly: Non-competitive inhibition of electric eel AChE using acetylthiocholine iodide as substrate assessed as decreased Vmax with constant Km by Ellman's method based Lineweaver-Burk plot analysis.
The target is the same in series [16]. Put plainly: Inhibition of electric eel AChE using acetylthiocholine iodide as substrate at 10 uM preincubated for 10 mins followed by substrate addition by Ellman's method relative to control.
Another series concerns SH-SY5Y. Nature of the series: Neuroprotective activity against H2O2-induced cell death in human SH-SY5Y cells assessed as cell viability at 3.125 to 12.5 uM preincubated for 24 hrs followed by H2O2 addition and measured after 2 hrs by MTT assay. The format is functional, cell-based. The conditions noted are these: dose 3.125-12.5 µM, time 26.0 hrs.
For series [17], the system named is Mus musculus. Put plainly: Antialzheimer activity against scopolamine-induced amnesia Swiss mouse model assessed as number of crossings at 1 uM, icv by open field test. The format is functional, organism-based.
Series [18] relates to Mus musculus. Nature of the series: Antialzheimer activity against scopolamine-induced amnesia Swiss mouse model assessed as increase in exploration time at 1 uM, icv by novel object recognition test. The series is classed as functional, organism-based.
A further series can be described thus: in vitro. The conditions noted are these: human.
A short description of series [19]: Toxicity in Swiss mouse assessed as novel […] memory at 1 uM, icv by novel object recognition test. The conditions noted are these: in vivo, icv_or_intrathecal.
In series [20] the test system is Mus musculus. Nature of the series: Antialzheimer activity against scopolamine-induced amnesia Swiss mouse model assessed as sign of innate preference for objects at 1 uM, icv by novel object recognition test. The format is functional, organism-based.

Active and inactive are the calls of the source. No cut-off for these calls is given here.

T1 sequence (O42275 whole entry): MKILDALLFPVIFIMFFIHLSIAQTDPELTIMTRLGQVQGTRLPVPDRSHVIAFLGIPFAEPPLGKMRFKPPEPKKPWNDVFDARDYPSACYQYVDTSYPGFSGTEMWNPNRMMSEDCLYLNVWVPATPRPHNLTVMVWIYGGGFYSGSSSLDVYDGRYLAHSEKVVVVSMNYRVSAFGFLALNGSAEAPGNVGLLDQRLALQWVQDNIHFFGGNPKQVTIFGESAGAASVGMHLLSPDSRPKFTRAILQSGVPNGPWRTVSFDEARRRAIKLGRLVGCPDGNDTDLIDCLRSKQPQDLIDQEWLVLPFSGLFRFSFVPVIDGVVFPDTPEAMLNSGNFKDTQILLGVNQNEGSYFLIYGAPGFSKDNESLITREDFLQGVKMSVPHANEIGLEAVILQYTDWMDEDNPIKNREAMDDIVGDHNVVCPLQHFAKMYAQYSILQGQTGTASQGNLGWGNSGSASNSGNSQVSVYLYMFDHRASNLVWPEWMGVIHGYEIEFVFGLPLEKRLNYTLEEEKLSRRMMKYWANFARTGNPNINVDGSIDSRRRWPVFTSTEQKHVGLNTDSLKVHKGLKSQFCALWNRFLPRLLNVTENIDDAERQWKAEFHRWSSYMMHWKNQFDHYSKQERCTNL
Chain of Acetylcholinesterase (Electrophorus electricus) (O42275 24-633 limits assumed): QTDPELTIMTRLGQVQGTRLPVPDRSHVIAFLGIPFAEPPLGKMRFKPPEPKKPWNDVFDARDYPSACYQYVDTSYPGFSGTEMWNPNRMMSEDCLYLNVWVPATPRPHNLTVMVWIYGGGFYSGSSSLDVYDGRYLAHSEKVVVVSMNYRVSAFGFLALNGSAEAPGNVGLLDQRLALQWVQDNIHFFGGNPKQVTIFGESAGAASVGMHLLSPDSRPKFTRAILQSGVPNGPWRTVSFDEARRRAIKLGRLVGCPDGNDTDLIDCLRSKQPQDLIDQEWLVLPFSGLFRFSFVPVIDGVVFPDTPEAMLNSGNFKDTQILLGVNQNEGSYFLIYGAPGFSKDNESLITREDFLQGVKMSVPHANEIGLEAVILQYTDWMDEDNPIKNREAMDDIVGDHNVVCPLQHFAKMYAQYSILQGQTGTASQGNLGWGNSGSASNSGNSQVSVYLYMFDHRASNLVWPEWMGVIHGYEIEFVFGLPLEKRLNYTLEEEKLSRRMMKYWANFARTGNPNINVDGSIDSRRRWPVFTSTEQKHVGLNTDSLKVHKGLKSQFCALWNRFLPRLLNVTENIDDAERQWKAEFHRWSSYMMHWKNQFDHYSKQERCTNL
Chain of Cholinesterase (Equus caballus) (P81908 whole entry): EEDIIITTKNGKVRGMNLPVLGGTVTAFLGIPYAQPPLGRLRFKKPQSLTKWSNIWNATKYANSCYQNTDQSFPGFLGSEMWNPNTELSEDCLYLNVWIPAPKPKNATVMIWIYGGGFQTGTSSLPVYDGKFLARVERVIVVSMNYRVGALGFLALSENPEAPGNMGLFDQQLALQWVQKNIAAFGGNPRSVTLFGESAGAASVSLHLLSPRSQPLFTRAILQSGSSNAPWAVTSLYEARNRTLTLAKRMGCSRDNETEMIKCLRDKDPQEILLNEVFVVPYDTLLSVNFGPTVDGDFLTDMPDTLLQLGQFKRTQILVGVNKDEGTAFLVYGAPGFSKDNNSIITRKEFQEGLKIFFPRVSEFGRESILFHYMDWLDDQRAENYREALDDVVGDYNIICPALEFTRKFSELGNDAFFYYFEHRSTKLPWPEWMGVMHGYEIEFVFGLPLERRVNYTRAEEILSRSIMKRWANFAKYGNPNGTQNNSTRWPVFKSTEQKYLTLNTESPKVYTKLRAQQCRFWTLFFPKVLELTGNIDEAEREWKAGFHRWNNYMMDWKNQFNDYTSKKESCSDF
T2 sequence (P81908 whole entry): as above
Description for in vitro: Neurotoxicity against human SH-SY5Y cells assessed as cell viability at 50 uM relative to control

Compound `Oc1ccc(/C=N/NC(=S)Nc2c3ccccc3nc3ccccc23)cc1` displayed an inhibition in [1] of 83%. The figures for the IC50 on Acetylcholinesterase [2] and at Cholinesterase [3] were 11.5 µM and 1.73 µM, respectively.
Take `CN(C)c1ccc(/C=N/NC(=S)Nc2c3ccccc3nc3ccccc23)cc1`: the inhibition in series [1] was found to be 83%. Further, the IC50 against Acetylcholinesterase [2] was determined as 7.6 µM; against Cholinesterase [3], 1.77 µM.
For `Cc1ccc(/C=N/NC(=S)Nc2c3ccccc3nc3ccccc23)cc1`, in series [1], the inhibition is 83%. For the same compound, the results for the IC50 against Acetylcholinesterase [2] and against Cholinesterase [3] were 2.78 µM and 1.54 µM, respectively.
As for `COc1ccc(/C=N/NC(=S)Nc2c3ccccc3nc3ccccc23)cc1`, the Activity result in series [4] is “Non-toxic”. In series [1], this compound gave an inhibition of 83%. Also, the results for the IC50 at Acetylcholinesterase [2] and against Cholinesterase [3] were 6.2 µM and 1.04 µM, respectively.
On to `S=C(N/N=C/c1ccco1)Nc1c2ccccc2nc2ccccc12`, for which the inhibition in series [1] turned out to be 83%. The IC50 on Acetylcholinesterase [2] came to 28 µM; against Cholinesterase [3], 4.4 µM. In series [5], the Activity came out at 43.9%.
`Oc1cccc(/C=N/NC(=S)Nc2c3c(nc4ccccc24)CCCC3)c1`: the Activity in series [5] came to 12.1%. Also, the IC50 against Cholinesterase [3] was 3.03 µM.
`S=C(N/N=C/c1cccnc1)Nc1c2ccccc2nc2ccccc12`: the inhibition in [1] was 83%. In series [5], the Activity was found to be 15.5%.
In the case of `S=C(N/N=C/c1ccccc1)Nc1c2c(nc3ccccc13)CCCC2`, the Ki at Acetylcholinesterase [6] came to 1.66 µM; on Acetylcholinesterase [7], 9.82 µM; at Cholinesterase [10], 1.41 µM; at Cholinesterase [11] it was 3.63 µM. The result in series [8] and in series [9] was Active. In addition, the IC50 was determined as 13.6 µM on Acetylcholinesterase [2] and 5.38 µM against Cholinesterase [3]. In series [5], the Activity came to 32.2%.
Take `S=C(N/N=C/c1ccc(Br)cc1)Nc1c2ccccc2nc2ccccc12`: the inhibition in series [1] was found to be 83%. Further, the 50% inhibitory concentration (IC50) was 9.79 µM against Acetylcholinesterase [2] and 3.18 µM against Cholinesterase [3].
For the compound `O=c1c(O)c(-c2ccc(O)c(O)c2)oc2cc(O)cc(O)c12`, in series [12], the Activity was determined as 51.7%.
For the compound `Fc1ccc(/C=N/NC(=S)Nc2c3ccccc3nc3ccccc23)cc1`, in series [13], the viability at 50 µM is at most 70%. The compound further gave an inhibition in [1] of 83%. In addition, the half-maximal inhibitory concentration (IC50) on Acetylcholinesterase [2] is 12.8 µM; on Cholinesterase [3] it was 1.35 µM. For the same compound, in series [5], the Activity was found to be 44.3%.
For `S=C(N/N=C/c1ccc(Cl)cc1Cl)Nc1c2ccccc2nc2ccccc12`, the Activity entry in [4] was “Non-toxic”. In series [1], this compound came in with an inhibition of 83%. For the same compound, the 50% inhibitory concentration (IC50) against Acetylcholinesterase [2] was 6.11 µM; at Cholinesterase [3], 1.06 µM.
Regarding `Cc1[nH]c2ccccc2c1/C=N/NC(=S)Nc1c2ccccc2nc2ccccc12`, the inhibition in series [1] was 83%. The 50% inhibitory concentration (IC50) was 8.57 µM against Acetylcholinesterase [2] and 2.01 µM at Cholinesterase [3]. Further, the Activity in series [5] is 61%.
`Oc1cccc(/C=N/NC(=S)Nc2c3ccccc3nc3ccccc23)c1` registered an inhibition in [1] of 83%. Moreover, the IC50 on Acetylcholinesterase [2] was determined as 22 µM; against Cholinesterase [3] it was 2.28 µM.
As for `O=[N+]([O-])c1ccc(/C=N/NC(=S)Nc2c3ccccc3nc3ccccc23)cc1`, in series [4], the Activity entry is recorded as “Non-toxic”. Besides, the results for the Ki on Acetylcholinesterase [7], at Cholinesterase [14] and at Cholinesterase [11] were 2.97 µM, 0.2 µM and 0.53 µM, respectively. For the same compound, in series [1], the inhibition stood at 83%. Also, the figures for the IC50 against Acetylcholinesterase [2] and against Cholinesterase [3] were 8.64 µM and 0.89 µM, respectively. In [15], the inhibition result is “Active”.
Compound `S=C(N/N=C/c1c[nH]c2ccccc12)Nc1c2ccccc2nc2ccccc12` had an inhibition in [1] of 83%. The results for the half-inhibitory concentration (IC50) on Acetylcholinesterase [2] and at Cholinesterase [3] were 9.39 µM and 1.68 µM, respectively. In series [5], the Activity was determined as 23.8%.
As to `S=C(N/N=C/c1ccccc1)Nc1c2ccccc2nc2ccccc12`, the Activity result was “Non-toxic” in series [4] and 37.9% in series [5]. Further, the results for the Ki on Acetylcholinesterase [7], on Cholinesterase [14] and on Cholinesterase [11] were 1.35 µM, 0.72 µM and 1.68 µM, respectively. Moreover, the inhibition was found to be 87% in [16] and 83% in [1]. Also, the IC50 turned out to be 2.47 µM against Acetylcholinesterase [2] and 0.71 µM against Cholinesterase [3]. The inhibition result in [15] is “Active”.
`Cc1ccc(/C=N/NC(=S)Nc2c3ccccc3nc3ccccc23)c(O)c1` returned an inhibition in series [1] of 83%. The half-inhibitory concentration (IC50) on Acetylcholinesterase [2] is 11.3 µM; at Cholinesterase [3], 3.19 µM. The Activity in series [5] was determined as 28.7%.
In [1], `Oc1ccccc1/C=N/NC(=S)Nc1c2ccccc2nc2ccccc12` displayed an inhibition of 83%. Further, the half-maximal inhibitory concentration (IC50) against Acetylcholinesterase [2] amounted to 10.8 µM; at Cholinesterase [3], 3.13 µM. Further, the Activity in [5] was 15.8%.
Regarding `COc1ccc(/C=N/NC(=S)Nc2c3ccccc3nc3ccccc23)cc1O`, the inhibition in series [1] was determined as 83%. Moreover, the results for the IC50 against Acetylcholinesterase [2] and against Cholinesterase [3] were 43.3 µM and 3.3 µM, respectively. The Activity in [5] stood at 41.2%.
Consider `CC(C)(C)c1cc(/C=N/NC(=S)Nc2c3ccccc3nc3ccccc23)cc(C(C)(C)C)c1O`, for which the outcome in the series with SH-SY5Y and with Mus musculus [18] was Active. Moreover, the viability at 50 µM is at most 70% in series [13] and 90% in “in vitro” (SH-SY5Y cells). The result in the series with Mus musculus [17] and with Mus musculus [20] was inactive. In addition, in [1], the inhibition worked out at 83%. Besides, the results for the half-inhibitory concentration (IC50) against Acetylcholinesterase [2] and on Cholinesterase [3] were 10.5 µM and 1.15 µM, respectively. Besides, the Activity in [5] was 69%; in series [19], “Toxic”.
Consider `S=C(N/N=C/c1cccs1)Nc1c2ccccc2nc2ccccc12`, for which the inhibition in series [1] came to 83%. Also, the IC50 against Acetylcholinesterase [2] is 34.6 µM; against Cholinesterase [3], 2.45 µM. Also, the Activity in [5] worked out at 41.5%.
`COc1cc2c(cc1OC)C(=O)C(CC1CCN(Cc3ccccc3)CC1)C2` (stereo not drawn) [DONEPEZIL] returned a viability at 50 µM in the series “in vitro” (sh-sy5y) of 80%.
Compound `S=C(N/N=C/c1ccc(Cl)cc1)Nc1c2ccccc2nc2ccccc12` registered an inhibition in series [1] of 83%. For the same compound, the IC50 against Acetylcholinesterase [2] was 10.1 µM; at Cholinesterase [3], 2.19 µM.
